Where two headings read alike, the source gives them in different places. Strand notation (5' to 3'): a small letter for the sugar, then the base; units joined by * are phosphorothioate-linked, units joined directly phosphodiester-linked; [ ] holds rarer units or linkages, { } end groups; capitals alone tell only the bases. [MMI] = methylene(methylimino) internucleoside backbone linkage; e = 2'-O-(2-methoxyethyl) (MOE); [5mC] = 5-methylcytosine; d = 2'-deoxy (DNA)
Legend:
Type in all cases: cell-based, human
ICAM-1 mRNA [1] = assay: Northern blot analysis of ICAM-1 transcript abundance in oligomer-treated HUVECs; conditions: FIG. 2
Source text: Total cellular RNA was isolated from oligomer-treated HUVECs and analyzed to determine if inhibition of ICAM-1 protein expression resulted from antisense-promoted degradation of the target transcript.
(§1) Total cellular RNA was isolated by cellular lysis using CATRIMOX-14 surfactant (Iowa Biotechnology Group, Oakdale Iowa). Isolated RNA was separated on a 1.2% agarose gel containing 1.1% formaldehyde, then transferred to a nylon membrane and UV crosslinked to the membrane using a Stratagene UV crosslinker 2400 (La Jolla Calif.). Blots were hybridized with cDNA probes in QUICKHYB solution (Stratagene). Blots were washed twice at room temperature in 2×SSC with 0.1% SDS for 10 minutes each and then once in […] SSC with 0.1% SDS at 65° C. for 30 minutes.

E-selectin mRNA [2] = assay: ELISA of E-selectin expression in HUVECs; conditions: HUVECs; for IC50: ELISA, read-out: IC50 for reduction of E-selectin expression
E-selectin mRNA [3] = assay: Northern blot analysis of E-selectin mRNA levels in oligomer-treated HUVECs
Source text: ISIS 11929 is an antisense oligonucleotide targeted to E-selectin, another cellular adhesion molecule, and was included in this experiment as a control.
as §1

ICAM-1 mRNA [4] = assay: Cell surface ICAM-1 expression in HUVECs after Lipofectin delivery of MMI oligomers; conditions: six concentrations 6.2 to 200 nM, N.A. = IC50 not obtained in the given dose range, read-out: Antisense activity (IC50) Lipofectin
ICAM-1 mRNA [5] = assay: Cell surface ICAM-1 expression in U937 cells after electroporation of MMI oligomers; conditions: six concentrations 4 to 40 μM, N.A. = IC50 not obtained in the given dose range, read-out: Antisense activity (IC50) Electroporate
Experimental: ISIS 14293-14296 are corresponding oligomers with alternating MMI/P═S backbones.
U937 cells were washed once in cold Opti-MEM (Gibco-BRL, Grand Island, N.Y.) and resuspended at 4×10^6 cells/ml. Oligomer was added to 0.1 ml of cells and incubated for 10 minutes on ice. Cells were transferred to a 1 mm gap electrode (BTX, San Diego, Calif.) and electroporated at 0.75 kV/cm. Cells were incubated at room temperature for 10 minutes and transferred to pre-warmed medium. Cells were allowed to rest for 1.5 hours before ICAM-1 expression was induced with 5 ng/ml TNF-αovernight. Cells were stained with an anti-ICAM-1-PE antibody (Pharmingen, San Diego CA) the next day.

Substance | relative abundance of the ICAM-1 transcript (Northern blot) (ICAM-1 mRNA [1]) | IC50 (E-selectin mRNA [2]; FIG. 5 experiment) [nM] | IC50 (E-selectin mRNA [2]; equivalent (second) experiment) [nM] | IC50 for inhibition of E-selectin expression (E-selectin mRNA [2]; FIG. 3 experiment) | inhibition of E-selectin expression (E-selectin mRNA [2]; oligomer concentration of 50 nM) [%] | E-selectin mRNA levels (E-selectin mRNA [3]) | IC50 (ICAM-1 mRNA [4]) [nM] | IC50 (ICAM-1 mRNA [5]) [µM]
ISIS 11929: SEQ ID NO: 3, P═O all 2′-MOE except 3′ nt is deoxy, all C's 5meC; E-selectin 5′ cap (antisense eGeAeAeGeTe[5mC]eAeGe[5mC]e[5mC]eAeAeGeAeAe[5mC]eAeGe[5mC]dT) | did not cause an increase | < 3 | < 3 | well below this | ~100 | did cause an increase |  | 
ISIS 14294: T*GA*GT*AG*CA*GA*GG*AG*CT*C (SEQ ID NO: 12), alternating P═S/MMI; ICAM-1 n.t. 1-18 (TGAGTAGCAGAGGAGCTC; linkages [MMI]s[MMI]s[MMI]s[MMI]s[MMI]s[MMI]s[MMI]s[MMI]s[MMI] (s phosphorothioate, o phosphodiester), sugars by position and methylation of C not given here; 3'-terminal nucleotide 2'-deoxy, non-terminal cytosines 5-methylated) |  |  |  |  |  |  | 175 | 20
